Results taken from article PMC6940354, “Comparative Assessment of the New PDE7 Inhibitor – GRMS-55 and Lisofylline in Animal Models of Immune-Related Disorders: A PK/PD Modeling Approach” (Pharmaceutical Research, 2020).
Values after ≈ are worked out from the molar mass of the structure shown. Like-named read-outs stand apart in the source and are kept apart here.

Experiments:
[1] = tested on: ConA-induced hepatitis in BALB/c mice; experiment: ConA-induced hepatitis in mice; type: in vivo, mouse; details: IP 30 min before ConA 20 mg kg^−1 IV, 8 h after ConA, rolipram 10 mg kg^−1, GRMS-55 and (±)-LSF 50 mg kg^−1, vs control group
Experimental: ConA was dissolved in an appropriate volume of saline for injections to obtain a concentration of 2 mg mL^−1. Each of the investigated compounds was dissolved in a vehicle composed of DMSO and PEG 400 mixed at a ratio of 1:9 (v/v). Thirty minutes before ConA administration, mice were injected intraperitoneally (IP) with the investigated compounds dissolved in the vehicle at a dose of 50 mg kg^−1 or with the corresponding volume of vehicle alone in the case of control group. ConA was administered by IV route at a dose of 20 mg kg^−1 and 8 h later mice were sacrificed. Blood samples were harvested from each individual and allowed to clot for 30 min at room temperature. Subsequently, serum was separated by centrifugation (3000 x g, 10 min), collected, and stored at −80°C until analysis.
(§1) TNF-α levels in LPS-stimulated rat blood in vitro and in rat plasma samples from the in vivo studies were analyzed by the Rat TNF-α Quantikine ELISA Immunoassay Kit (R&D Systems, USA) according to the manufacturer’s instructions. The assay was linear at the range of 12.5–800 pg mL^−1. Levels of TNF-α in mice serum were measured by ELISA Kits for Tumor Necrosis Factor Alpha (Cloud-Clone Corp., USA). This assay was linear at the range of 15.6–1000 pg mL^−1. Absorbance was measured at 450 nm using a POLARstar Omega multi-mode microplate reader (BMG LABTECH, Germany).
Serum […] (AST) and alanine transaminase (ALT) activity was analyzed using the chemistry analyzer BS-800 (Shenzhen Mindray Bio-medical Electronics Co. ltd, China).

[2] = tested on: collagen-induced arthritis (CIA) in female Lewis rats; experiment: Body weight, clinical score and paw areas in CIA rats; type: in vivo, rat; details: CIA rats vs control group; rolipram at all assessments post 20th day, (±)-LSF at 26, 33, and 36 day
Experimental: At a day 0 of the experiment animals were subcutaneously (SC) injected at the base of the tail with 200 μL of the emulsion using a 27 gauge × 5/8″ needle and Hamilton syringe. At day 7 after the initial immunization, a booster injection with 100 μL of emulsion was performed. Ninety % of rats developed symptoms of disease (paw swelling >150% of day 0) at day 20 of the experiment. At this day, diseased animals were randomly divided into five groups (n = 6). […] One investigated group received (±)-LSF dissolved in saline at an SC dose of 80 mg kg^−1 once daily. The corresponding control groups were administered with appropriate volumes of vehicles IP or SC. At day 40 animals were sacrificed. Hind paws of rats were taken and immersed into 4% buffered formalin solution for a subsequent histological analysis. Blood samples were collected and allowed to clot for 20 min and then centrifuged at 2000 x g for 15 min. Serum samples were collected and frozen at -80°C.
Body weight and paw size were measured, and clinical score was assessed at days 0, 5, 7, 11, 15, 18, 20, 22, 26, 30, 33, and 36 after the first immunization. Body weight of each rat was normalized to the body weight of the same rat at the day of the first immunization. Disease progression was evaluated by a qualitative clinical score (CS) as described elsewhere (1), where 0 – no symptoms of the disease, such as redness or swelling, 1 – mild, but definite redness and swelling, 2 – moderate redness and swelling, 3 – severe redness and swelling, and 4 – maximally inflamed limbs.

[3] = tested on: TNF-α plasma levels in male Wistar rats with LPS-induced endotoxemia; experiment: LPS-induced endotoxemia in rats, PK/PD model of plasma TNF-α; type: in vivo, rat; details: for IC50: Rattus norvegicus, iv; for activity in inhibiting TNF-α release in vivo, times lower than that of rolipram: ratio of IC50 values to rolipram
Experimental: Male Wistar rats were implanted with catheters (SAI Infusion Technologies, USA) into the jugular vein and after a two-day recovery period they were administered with LPS dissolved in saline at a dose of 1 mg kg ^−1 into the tail vein simultaneously with one of the investigated compounds. […] The doses of the compounds were selected based on the literature data or results of our previous experiments. Each control group received LPS at the same IV dose and an appropriate volume of corresponding vehicle. […] The plasma samples were collected and stored at −80°C until analysis.
as §1
PK/PD and PK/PD/DIS progression models were developed considering the mechanism of action of the investigated compounds, the mechanisms of disease progression in the case of CIA, and the subsequent stages leading to TNF-α release in the case of LPS-induced endotoxemia. Various numbers of transit compartments were tested during development of the models, and the final models were chosen based on the goodness-of-fit criteria, such as AIC, SBC, a visual inspection of the fitting, and parameter precision. Estimated values of pharmacokinetic parameters were fixed during PK/PD and PK/PD/DIS progression model fitting procedures. […] PK/PD and PK/PD/DIS progression modeling were performed in ADAPT 5 software using the weighted least squares algorithm.
Therefore, as a result of PK/PD analysis, three sets of pharmacodynamic parameters were obtained based on the data from the three individual experiments.
The applied model is a modified indirect response model ([19]) with implemented transit compartments (T1-T4) that describe the delay of the observed pharmacodynamic response. In this scheme τ is the mean transit time, kin is the time limited (from 0 to tlag) zero-order rate constant of production of a TNF-α precursor (e.g., TNF-α mRNA). Different numbers of transit compartments were tested during the model development, but the best fit was observed using four transit compartments.
All Imax values were fixed to 1.

[4] = tested on: TNF-α release from LPS-stimulated whole rat blood; experiment: Inhibition of LPS-induced TNF-α release in whole rat blood; type: cell-based
Experimental: Stimulation of whole rat blood by LPS was performed on 96-well plates. […] Contents of each well (200 μL) consisted of heparinized rat blood containing 10 U heparin mL^−1 diluted with RPMI-1640 medium at a ratio of 1:1 (v/v). All compounds were dissolved in DMSO and added to blood (the final DMSO concentration in blood was 0.5%) 15 min prior to the addition of LPS dissolved in RPMI-1640 medium to achieve the LPS concentration of 10 mg L^−1. Both, LPS and DMSO were also added to control wells at the same concentrations. Additional control samples (for testing baseline TNF-α levels in blood) consisted of DMSO (0.5%) without LPS. The incubation was performed at 37°C in a humidified atmosphere of 5% CO2 in an MCO-5 AC-PE incubator (PHCbi, Japan). After 6 h of incubation, the plates were centrifuged for 10 min using PlateFuge MicroCentrifuge (Benchmark Scientific, USA). The individual plasma samples were harvested and stored at −80°C until analysis.
as §1

[5] = read-out: IC50, concentration of compound producing 50% of Imax (inhibition of TNF-α release in vivo), Final estimate (CV%), plasma concentration, PK/PD model, Imax fixed to 1, male Wistar rats, LPS 1 mg kg^−1 IV, IV GRMS-55 20, rolipram 5, (±)-LSF and PTX 40 and 80 mg kg^−1
[6] = LPS 10 mg L^−1, 6 h incubation, compared to LPS-treated control

Row | Compound | TNF-α release in mice serum (result in words) [1] | activities of transaminases (ALT, AST) in mice sera (result in words) [1] | clinical score values (result in words) [2] | IC50 [3, 5] [µg/mL] | potency in inhibiting TNF-α release in vivo, times stronger than PTX ([3]; ratio of IC50 values) | activity in inhibiting TNF-α release in vivo, times lower than that of rolipram [3] | Reduction of TNF-α levels in LPS-stimulated whole rat blood (result in words) [4, 6] | Inhibition of TNF-α release in LPS-stimulated whole rat blood (result in words) ([4]; levels of 50 and 250 μM, compared to the control wells) | IC50 ([3]; read-out: IC50, concentration of compound producing 50% of Imax (inhibition of TNF-α release in vivo), Final estimate (CV%)) [µg/mL] | Reduction of TNF-α levels in LPS-stimulated whole rat blood (result in words) ([4]; concentration of 50 μM, compared to the control group)
1 | CC(O)CCCCn1c(=O)c2c(ncn2C)n(C)c1=O (racemic) [(±)-LSF, lisofylline] | significantly reducing TNF-α levels | failed to decrease the activities of transaminases | significantly lower | 5.8 (≈ 20.7 µM) | ~ 2.4 times | ~ 16 times | significantly and with similar potency reduced | – | – | –
2 | Cn1c(=O)c2c(nc(NCCc3ccccc3)n2CCCC(=O)NN=Cc2ccccc2O)n(C)c1=O [GRMS-55, 4-(1,3-Dimethyl-2,6-dioxo-8-(phenethylamino)-2,3,6,7-tetrahydro-1H-purin-7-yl)-N′-(2-hydroxybenzylidene)butanehydrazide] | most potently inhibited TNF-α release | significantly reduced | did not decreased significantly | ~1.1 (≈ 2.18 µM) | – | ~ 3 times | did not exhibit activity | failed to inhibit TNF-α release | – | –
3 | COc1ccc(C2CNC(=O)C2)cc1OC1CCCC1 (stereo not shown) [Rolipram, rolipram] | most potently inhibited TNF-α release | significantly reduced | significantly lower | – | – | – | – | – | 0.36 (≈ 1.31 µM) | completely reduced
